Measurements as given in patent US12691101B2, “Compound and method for preventing or treating of respiratory diseases comprising the same as an active ingredient” (YONSEI UNIVERSITY, UNIVERSITY - INDUSTRY FOUNDATION (UIF), priority 2019, dated 2026).

Assays:
[1] = tested on: AN01; test: Protein expression measurement in IL-4-treated HNE cells, AN01; type: cell-based, human; settings: long-term treatment
Protocol: CHO-K1 and HNE cells were lysed with a cytolytic buffer (50 mM Tris-HCl, pH 7.4, 1% Nonidet P-40, 0.25% sodium deoxycholate, 150 mM NaCl, 1 mM EDTA, 1 mM Na3VO4, and protease inhibiting mixture). The total cell lysates were under centrifugation at 15,000×g for 10 minutes at 4° C. to remove cellular debris and the same amount (50 μg protein or 5 μg protein/lane) of supernatant protein was isolated on 4-12% Tris-glycine precast gel (KOMA BIOTECH, Seoul, Korea) and transferred to PVDF membrane (Millipore, Billerica, MA, USA). The membrane was blocked with 5% fat-free skim milk in TBS containing 0.1% Tween 20 (TBST) or 5% bovine serum albumin in TBS at a room temperature for 1 hour. Then, the membrane was cultured at 4° C. overnight with a primary antibody against pendrin (sc-50346; Santa Cruz Biotechnology, Santa Cruz, CA, USA), NF-κB p65 (4764S; Cell Signaling Technology, Danvers, MA, USA), p-NF-κB p65 (3033S; Cell Signaling Technology), IkBα (9242S; Cell Signaling Technology), p-IkBα (9141S; Cell Signaling Technology), β-actin (sc-47778; Santa Cruz Biotechnology), or AN01 (ab64085; Abeam). After washing with 0.05% Tween 20 (TBST) in PBS, the blot was additionally cultured with a secondary antibody (Cell Signaling Technology, Danvers, MA) at a room temperature for 60 minutes. […]

[2] = tested on: pendrin; test: Pendrin protein expression in LPS-treated human alveolar epithelial cells (hAEC); type: cell-based
Protocol: The lung tissue was harvested and dissolved in a homogenization buffer (PRO-PREP™ extraction solution, iNtRON Biotechnology). The sample was centrifuged at 4° C. for 30 minutes at 13000 g. The supernatant protein concentration was determined by BCA analysis (Thermo Fisher Scientific). The same amount of protein was separated by SDS/PAGE and transferred to a nitrocellulose membrane. The membrane was blocked with 5% skim milk in TBS-T (TBS (170-6435, Bio-Rad Laboratories) and 1% Tween-20 (170-6531, Bio-Rad Laboratories) for 1 hours. Then, the membrane was cultured overnight with the primary antibody diluted with 5% skim milk in TBS-T at 4° C. After washing with TBS-T, the blot was cultured with horseradish peroxidase-combined secondary antibody and 5% skim milk in TBS-T at a room temperature for 1 hour, and then developed using Super-Signal West Pico chemiluminescence detection kit. The antibody used in the present invention includes rabbit SLC26A4 (ab98091, abcam), mouse phospho-Iκ (9246, Cell Signaling Technology), mouse Iκ (4814, Cell Signaling Technology), and rabbit α-tubulin (PA5-16891, Cell Signaling Technology). Western blot quantization was performed using ImageJ (Image Processing and Analysis in Java; NIH, USA) software.

[3] = tested on: pendrin mRNA; test: Pendrin mRNA expression in LPS-treated hAEC, real-time PCR; type: cell-based, human
Protocol: The total messenger RNA (mRNA) was extracted using TRIzol reagent (Invitrogen, Carlsbad, CA, USA), and was reverse-transcribed using a random hexamer primer, an oligo(dT) primer and SuperScript® III reverse transcriptase (Invitrogen). Quantitative real-time PCR was performed using StepOnePlus Real-Time PCR system (Applied Biosystems, Foster City, CA, USA) and Thunderbird SYBR qPCR mix (Tokyobo, Osaka, Japan). Thermal cycling conditions included the initial stage at 95° C. for 5 minutes, and subsequent 40 cycles at 95° C. for 10 seconds, at 55° C. for 20 seconds and at 72° C. for […].

[4] = target: T1, SLC26A3 (Homo sapiens, UniProt P40879); test: Cl^−/HCO3^− exchange in CHO-K1 cells expressing SLC26A3; type: cell-based; settings: weakly inhibited
T1 construct: expressed in transfected cells; host or cells: CHO-K1
Protocol: (§1) (A) The inhibition of mouse pendrin (mPDS)-mediated Cl^−/I^− exchange activity by F56 was measured in CHO-K1 cells (mean±S.E., n=5). The indicated concentration of F56 was pretreated for 10 minutes. (B) Summary of dose-response for inhibition of the human pendrin (hPDS)-mediated (closed circle, FIG. (a), C) and mPDS-mediated (open circle) Cl^−/I^− exchange activity. (C-F) Representative traces of intracellular pH in CHO-K1 cells expressing SLC26A3, SLC26A6, SLC26A7 and SLC26A9 were shown. The application of Cl^− free solution induced intracellular alkalization by Cl^−/HCO3^− exchange. The indicated concentration of F56 was pretreated for 10 minutes. (G) the effect of F56 (100 μM) on the CFTR chloride channel activity was measured in FRT cells expressing human CFTR. The CFTR current was activated by 20 μM forskolin and was inhibited by 10 μM CFTRinh-172. (H) The effect of F56 (100 μM) on the AN01 chloride channel activity was measured in FRT cells expressing human AN01. Before 10 minutes prior to AN01 activation by 100 μM ATP, F56 was added. (Right) Peak current summary (mean±S.E., n=3). (I) The effect of F56 on the hERG (Kv11.1) potassium channel activity was measured in HEK293T cells expressing human Kv11.1 (mean±S.E., n=4). […] (J) The effect of F56 on the 5-HT2A channel activity was measured in FRT cells expressing human 5-HT2A (mean±S.E., n=4). […]

[5] = tested on: SCN^− transport; test: Epithelial SCN^− transport in IL-4-treated HNE cells; type: cell-based, human; settings: 30 μM, 30 minutes
Protocol: Nasal epithelial cells were plated on a transwell permeable supporter and cultured in ALI (air-liquid interface) for 14 days. After completely differentiated epithelial cells were cultured with IL-4 (Invitrogen, 10 ng/mL) for 48 hours, F56 (30 μM) or vehicle was added for 30 minutes. The transwell insert having cells was washed with PBS and the basal side was treated with 1 mL PBS containing 10 mM glucose and 5 μCi S^14CN (total concentration SCN^−: 86 μM). The apical side of the transwell was filled with 0.5 mL PBS containing 5 μM amiloride to block epithelial sodium. Subsequently, the apical fluid was collected every 5 minutes and placed in scintillation vials for evaluation of radioactivity.

[6] = target: T2, mouse pendrin (mPDS) (Mus musculus, UniProt Q9R155); test: Mouse pendrin-mediated Cl^−/I^− exchange activity in CHO-K1 cells; type: cell-based
T2 construct: expressed in transfected cells; host or cells: CHO-K1
Protocol: as §1

T1 sequence (P40879 whole entry, species assumed): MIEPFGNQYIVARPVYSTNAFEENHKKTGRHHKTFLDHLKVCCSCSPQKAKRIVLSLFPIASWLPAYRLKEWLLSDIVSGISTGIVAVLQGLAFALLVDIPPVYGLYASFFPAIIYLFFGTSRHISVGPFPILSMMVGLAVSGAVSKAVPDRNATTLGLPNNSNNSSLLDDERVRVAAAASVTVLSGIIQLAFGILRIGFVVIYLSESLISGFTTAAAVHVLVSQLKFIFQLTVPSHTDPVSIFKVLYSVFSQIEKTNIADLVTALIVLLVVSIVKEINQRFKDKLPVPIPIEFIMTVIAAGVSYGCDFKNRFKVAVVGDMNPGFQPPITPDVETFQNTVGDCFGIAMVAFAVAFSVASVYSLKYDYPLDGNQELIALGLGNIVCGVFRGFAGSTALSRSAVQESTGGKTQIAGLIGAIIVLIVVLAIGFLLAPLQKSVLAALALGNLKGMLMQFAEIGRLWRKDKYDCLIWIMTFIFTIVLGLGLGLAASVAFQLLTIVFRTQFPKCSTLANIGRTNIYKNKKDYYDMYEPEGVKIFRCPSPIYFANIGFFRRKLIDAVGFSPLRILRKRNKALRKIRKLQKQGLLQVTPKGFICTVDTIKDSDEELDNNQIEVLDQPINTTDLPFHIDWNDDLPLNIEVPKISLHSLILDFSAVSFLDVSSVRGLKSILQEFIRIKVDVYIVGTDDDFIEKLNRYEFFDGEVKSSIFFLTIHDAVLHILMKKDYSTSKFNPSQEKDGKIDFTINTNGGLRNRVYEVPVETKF
T2 sequence (Q9R155 whole entry): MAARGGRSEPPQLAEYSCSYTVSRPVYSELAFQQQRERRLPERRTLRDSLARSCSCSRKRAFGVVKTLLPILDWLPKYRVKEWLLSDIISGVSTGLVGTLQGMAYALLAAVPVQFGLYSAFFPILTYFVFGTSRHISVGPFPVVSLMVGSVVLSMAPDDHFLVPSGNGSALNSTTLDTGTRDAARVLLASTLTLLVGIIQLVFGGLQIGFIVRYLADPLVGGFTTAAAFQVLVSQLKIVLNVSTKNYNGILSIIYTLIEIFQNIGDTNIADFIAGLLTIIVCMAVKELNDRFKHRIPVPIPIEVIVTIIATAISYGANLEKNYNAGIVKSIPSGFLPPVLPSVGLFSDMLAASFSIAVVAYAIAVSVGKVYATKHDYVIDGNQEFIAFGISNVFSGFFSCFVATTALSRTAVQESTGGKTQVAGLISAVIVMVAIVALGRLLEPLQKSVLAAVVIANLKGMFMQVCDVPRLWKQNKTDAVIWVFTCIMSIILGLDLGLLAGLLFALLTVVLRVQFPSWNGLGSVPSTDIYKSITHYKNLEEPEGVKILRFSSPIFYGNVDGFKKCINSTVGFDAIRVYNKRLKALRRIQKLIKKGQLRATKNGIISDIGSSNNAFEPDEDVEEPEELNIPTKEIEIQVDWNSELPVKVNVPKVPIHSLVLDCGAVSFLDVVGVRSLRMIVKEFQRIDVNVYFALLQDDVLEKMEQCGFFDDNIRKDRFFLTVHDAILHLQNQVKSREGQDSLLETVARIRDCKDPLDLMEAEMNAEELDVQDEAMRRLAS

- IC50 [4]: > 100 µM
- inhibition of mouse versus human pendrin-mediated exchange [6]: almost the same efficacy
SMILES: CC(C)(C)c1ccc(C2=NC(=Cc3cccs3)C(=O)O2)cc1 [F56, 2-(4-(tert-butyl)phenyl)-4-(thiophen-2-ylmethylene)oxazol-5(4H)-one]
- IL-4-induced upregulation of AN01 [1]: not affected
- protein expression level of pendrin [2]: reduced
- mRNA expression level of pendrin [3]: did not change
- SCN^− concentration on the apical surface [5]: inhibited
